In ChEMBL document CHEMBL1909046, “DrugMatrix in vitro pharmacology data”:

Tests used:
[1] = DRUGMATRIX: ATPase, Na+/K+ enzyme inhibition (substrate: ATP); type: tissue-based, Sus scrofa, Heart; settings: Not Active = under 50% inhibition at 10 µM
Calcitonin receptor = biological target: T1, Calcitonin receptor (Homo sapiens, UniProt P30988); type: cell membranes, Membrane; settings: t47d; further: in other assays of this panel Not Active means under 50% inhibition at 10 µM
T1 sequence (P30988 whole entry): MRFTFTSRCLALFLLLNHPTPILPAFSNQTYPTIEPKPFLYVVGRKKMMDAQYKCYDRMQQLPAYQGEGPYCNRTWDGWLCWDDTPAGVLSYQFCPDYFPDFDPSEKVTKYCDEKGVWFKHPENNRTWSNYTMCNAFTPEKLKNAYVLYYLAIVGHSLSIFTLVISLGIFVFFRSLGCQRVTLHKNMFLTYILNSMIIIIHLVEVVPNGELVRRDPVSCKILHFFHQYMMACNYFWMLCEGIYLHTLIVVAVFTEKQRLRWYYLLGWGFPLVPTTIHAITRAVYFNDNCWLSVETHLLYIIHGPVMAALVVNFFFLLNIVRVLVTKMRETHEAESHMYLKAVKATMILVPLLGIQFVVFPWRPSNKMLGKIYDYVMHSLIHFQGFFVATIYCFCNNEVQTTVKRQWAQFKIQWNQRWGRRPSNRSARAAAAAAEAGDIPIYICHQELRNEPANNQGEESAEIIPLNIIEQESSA

[2] = DRUGMATRIX: Sigma2 radioligand binding (ligand: [3H] Ifenprodil); type: cell membranes, Rattus norvegicus, Wistar, Brain, Membrane; settings: Not Active = under 50% inhibition at 10 µM
[3] = biological target: T2, C-X-C chemokine receptor type 1 (Homo sapiens, UniProt P25024); further: in other assays of this panel Not Active means under 50% inhibition at 10 µM
T2 sequence (P25024 whole entry): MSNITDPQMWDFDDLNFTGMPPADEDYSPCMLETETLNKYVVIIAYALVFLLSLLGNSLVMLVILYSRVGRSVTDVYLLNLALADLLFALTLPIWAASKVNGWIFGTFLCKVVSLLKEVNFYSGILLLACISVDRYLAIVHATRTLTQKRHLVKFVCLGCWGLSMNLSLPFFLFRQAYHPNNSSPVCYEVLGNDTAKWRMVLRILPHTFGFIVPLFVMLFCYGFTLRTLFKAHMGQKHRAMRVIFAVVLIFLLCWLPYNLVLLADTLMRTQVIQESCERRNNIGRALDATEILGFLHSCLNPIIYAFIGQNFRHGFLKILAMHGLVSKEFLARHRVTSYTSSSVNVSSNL

Mu-type opioid receptor = Mu-type opioid receptor (Homo sapiens, UniProt P35372); assay: DRUGMATRIX: Opiate mu (OP3, MOP) radioligand binding (ligand: [3H] Diprenorphine); type: cell membranes, CHO-K1, Membrane; settings: Not Active = under 50% inhibition at 10 µM
Sequence of Mu-type opioid receptor (P35372 whole entry): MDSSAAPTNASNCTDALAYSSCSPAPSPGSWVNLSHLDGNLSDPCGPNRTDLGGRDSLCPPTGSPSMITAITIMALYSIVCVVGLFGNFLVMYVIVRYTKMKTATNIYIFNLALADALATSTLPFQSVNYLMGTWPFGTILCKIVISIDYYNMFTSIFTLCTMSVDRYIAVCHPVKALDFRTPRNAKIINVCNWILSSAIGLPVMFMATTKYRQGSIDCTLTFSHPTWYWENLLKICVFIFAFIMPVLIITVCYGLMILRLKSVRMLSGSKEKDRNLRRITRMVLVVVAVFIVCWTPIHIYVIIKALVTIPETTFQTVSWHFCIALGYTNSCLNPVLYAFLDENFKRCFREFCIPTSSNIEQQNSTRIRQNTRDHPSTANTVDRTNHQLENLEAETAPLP

[4] = biological target: T3, Angiotensin-converting enzyme (Oryctolagus cuniculus, UniProt P12822); type: tissue-based, Lung;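 further: enzymatic inhibition of angiotensin-converting enzyme measured with FAPGG as the substrate; in other assays of this panel Not Active means under 50% inhibition at 10 µM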
T3 sequence (P12822 whole entry): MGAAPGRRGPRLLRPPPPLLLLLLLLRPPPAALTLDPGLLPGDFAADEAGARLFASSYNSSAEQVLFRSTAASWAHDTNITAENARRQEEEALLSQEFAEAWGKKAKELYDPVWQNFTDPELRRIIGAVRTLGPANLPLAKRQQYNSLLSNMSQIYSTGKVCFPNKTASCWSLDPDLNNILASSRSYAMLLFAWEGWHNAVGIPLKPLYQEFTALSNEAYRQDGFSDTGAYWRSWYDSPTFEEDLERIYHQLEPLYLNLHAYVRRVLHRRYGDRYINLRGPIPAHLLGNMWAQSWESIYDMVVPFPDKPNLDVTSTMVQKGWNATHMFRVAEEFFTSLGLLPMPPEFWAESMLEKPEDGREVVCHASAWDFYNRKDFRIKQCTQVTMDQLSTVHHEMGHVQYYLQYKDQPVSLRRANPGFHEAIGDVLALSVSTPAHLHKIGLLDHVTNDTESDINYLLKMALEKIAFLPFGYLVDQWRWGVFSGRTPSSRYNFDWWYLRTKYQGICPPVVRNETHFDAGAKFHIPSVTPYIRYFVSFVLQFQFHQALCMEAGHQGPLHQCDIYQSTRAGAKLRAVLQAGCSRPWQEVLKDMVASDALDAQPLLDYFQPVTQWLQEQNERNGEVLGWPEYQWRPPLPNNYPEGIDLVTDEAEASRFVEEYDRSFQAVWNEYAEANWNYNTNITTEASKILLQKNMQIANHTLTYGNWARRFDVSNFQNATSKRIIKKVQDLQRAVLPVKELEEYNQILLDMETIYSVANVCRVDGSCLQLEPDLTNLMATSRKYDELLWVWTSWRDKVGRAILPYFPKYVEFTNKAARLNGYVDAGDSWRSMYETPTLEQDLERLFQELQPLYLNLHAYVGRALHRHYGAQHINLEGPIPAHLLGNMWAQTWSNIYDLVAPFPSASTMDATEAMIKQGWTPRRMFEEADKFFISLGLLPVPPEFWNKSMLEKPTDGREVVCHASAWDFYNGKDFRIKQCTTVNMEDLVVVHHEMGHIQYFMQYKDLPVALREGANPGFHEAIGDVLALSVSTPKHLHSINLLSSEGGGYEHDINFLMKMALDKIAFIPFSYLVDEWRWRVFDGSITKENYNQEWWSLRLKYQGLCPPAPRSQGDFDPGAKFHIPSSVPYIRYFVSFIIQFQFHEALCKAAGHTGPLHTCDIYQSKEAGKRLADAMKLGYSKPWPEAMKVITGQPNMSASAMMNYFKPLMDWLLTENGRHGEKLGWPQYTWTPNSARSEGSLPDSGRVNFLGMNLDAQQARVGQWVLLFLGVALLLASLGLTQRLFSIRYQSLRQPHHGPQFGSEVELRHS

[5] = DRUGMATRIX: Purinergic P2X radioligand binding (ligand: [3H] alpha, beta-Methylene-ATP); type: cell membranes, Oryctolagus cuniculus, New Zealand albino, Urinary bladder, Membrane; settings: Not Active = under 50% inhibition at 10 µM
Cytochrome P450 2E1 = Cytochrome P450 2E1 (Homo sapiens, UniProt P05181); settings: bti-tn-5b1-4; further: in other assays of this panel Not Active means under 50% inhibition at 10 µM
Sequence of Cytochrome P450 2E1 (P05181 whole entry): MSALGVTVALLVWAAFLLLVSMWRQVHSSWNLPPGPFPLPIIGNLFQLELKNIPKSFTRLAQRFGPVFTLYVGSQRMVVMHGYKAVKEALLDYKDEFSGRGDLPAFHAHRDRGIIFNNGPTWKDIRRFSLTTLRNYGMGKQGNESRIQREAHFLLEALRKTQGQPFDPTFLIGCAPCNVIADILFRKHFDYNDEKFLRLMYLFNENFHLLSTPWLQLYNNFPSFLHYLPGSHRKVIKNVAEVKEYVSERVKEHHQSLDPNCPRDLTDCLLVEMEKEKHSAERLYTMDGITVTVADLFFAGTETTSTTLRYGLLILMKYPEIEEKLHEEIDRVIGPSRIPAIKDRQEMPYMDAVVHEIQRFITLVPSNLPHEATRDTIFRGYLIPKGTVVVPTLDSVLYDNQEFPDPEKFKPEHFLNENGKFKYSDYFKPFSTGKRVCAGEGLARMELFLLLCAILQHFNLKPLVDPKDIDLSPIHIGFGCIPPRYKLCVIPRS

COc1c(C)c2c(c(O)c1C/C=C(\C)CCC(=O)O)C(=O)OC2 [MYCOPHENOLIC ACID]
Not Active: IC50 [1] | Ki [1] | IC50 (Calcitonin receptor) | IC50 [2] | Ki [2] | IC50 [3] | IC50 (Mu-type opioid receptor; cho-k1) | IC50 [4] | IC50 [5] | Ki [5] | IC50 (Cytochrome P450 2E1) | Ki (Cytochrome P450 2E1)

O=c1ncn2nc(Sc3ccc(F)cc3F)ccc2c1-c1c(Cl)cccc1Cl [NEFLAMAPIMOD]
Not Active: IC50 [1] | Ki [1] | IC50 (Calcitonin receptor) | IC50 [2] | Ki [2] | IC50 [3] | IC50 (Mu-type opioid receptor; cho-k1) | IC50 [4] | IC50 [5] | Ki [5] | IC50 (Cytochrome P450 2E1) | Ki (Cytochrome P450 2E1)

CO[C@H]1/C=C/O[C@@]2(C)Oc3c(C)c(O)c4c(O)c(c(/C=N/N5CCN(C)CC5)c(O)c4c3C2=O)NC(=O)/C(C)=C\C=C\[C@H](C)[C@H](O)[C@@H](C)[C@@H](O)[C@@H](C)[C@H](OC(C)=O)[C@@H]1C [RIFAMPIN]
Not Active: IC50 [1] | Ki [1] | IC50 (Calcitonin receptor) | IC50 [2] | Ki [2] | IC50 [3] | IC50 (Mu-type opioid receptor; cho-k1) | IC50 [4] | IC50 [5] | Ki [5] | IC50 (Cytochrome P450 2E1) | Ki (Cytochrome P450 2E1)

C=CCC1(C(C)CCC)C(=O)NC(=O)NC1=O (stereo not drawn) [SECOBARBITAL]
Not Active: IC50 [1] | Ki [1] | IC50 (Calcitonin receptor) | IC50 [2] | Ki [2] | IC50 [3] | IC50 (Mu-type opioid receptor; cho-k1) | IC50 [4] | IC50 [5] | Ki [5] | IC50 (Cytochrome P450 2E1) | Ki (Cytochrome P450 2E1)

C[C@@H]1CN(c2c(F)c(N)c3c(=O)c(C(=O)O)cn(C4CC4)c3c2F)C[C@H](C)N1 [SPARFLOXACIN]
Not Active: IC50 [1] | Ki [1] | IC50 (Calcitonin receptor) | IC50 [2] | Ki [2] | IC50 [3] | IC50 (Mu-type opioid receptor; cho-k1) | IC50 [4] | IC50 [5] | Ki [5] | IC50 (Cytochrome P450 2E1) | Ki (Cytochrome P450 2E1)

Cc1noc(NS(=O)(=O)c2ccc(N)cc2)c1C [SULFISOXAZOLE]
Not Active: IC50 [1] | Ki [1] | IC50 (Calcitonin receptor) | IC50 [2] | Ki [2] | IC50 [3] | IC50 (Mu-type opioid receptor; cho-k1) | IC50 [4] | IC50 [5] | Ki [5] | IC50 (Cytochrome P450 2E1) | Ki (Cytochrome P450 2E1)

CSc1ccc(/C=C2/C(C)=C(CC(=O)O)c3cc(F)ccc32)cc1 [SULINDAC SULFIDE]
Not Active: IC50 [1] | Ki [1] | IC50 (Calcitonin receptor) | IC50 [2] | Ki [2] | IC50 [3] | IC50 [4] | IC50 [5] | Ki [5] | IC50 (Cytochrome P450 2E1) | Ki (Cytochrome P450 2E1)
13.7 µM: Ki (Mu-type opioid receptor)
33.7 µM: IC50 (Mu-type opioid receptor; read-out: IC50)

Nc1c2c(nc3ccccc13)CCCC2 [TACRINE]
Not Active: IC50 [1] | Ki [1] | IC50 (Calcitonin receptor) | IC50 [2] | Ki [2] | IC50 [3] | IC50 (Mu-type opioid receptor; cho-k1) | IC50 [4] | IC50 [5] | Ki [5] | IC50 (Cytochrome P450 2E1) | Ki (Cytochrome P450 2E1)

CC(C)N1CCN(c2ccc(OCC3COC(Cn4cncn4)(c4ccc(Cl)cc4Cl)O3)cc2)CC1 (stereo not drawn) [TERCONAZOLE]
Not Active: IC50 [1] | Ki [1] | IC50 (Calcitonin receptor) | IC50 [3] | IC50 (Mu-type opioid receptor; cho-k1) | IC50 [4] | IC50 [5] | Ki [5] | IC50 (Cytochrome P450 2E1) | Ki (Cytochrome P450 2E1)
0.195 µM: Ki ([2]; read-out: Ki)
0.317 µM: IC50 ([2]; read-out: IC50)

Nc1nc2nc[nH]c2c(=S)[nH]1 [THIOGUANINE]
Not Active: IC50 [1] | Ki [1] | IC50 (Calcitonin receptor) | IC50 [2] | Ki [2] | IC50 [3] | IC50 (Mu-type opioid receptor; cho-k1) | IC50 [4] | IC50 [5] | Ki [5] | IC50 (Cytochrome P450 2E1) | Ki (Cytochrome P450 2E1)

Cc1cccc(N(C)C(=S)Oc2ccc3ccccc3c2)c1 [TOLNAFTATE]
Not Active: IC50 [1] | Ki [1] | IC50 (Calcitonin receptor) | IC50 [2] | Ki [2] | IC50 [3] | IC50 (Mu-type opioid receptor; cho-k1) | IC50 [4] | IC50 [5] | Ki [5] | IC50 (Cytochrome P450 2E1) | Ki (Cytochrome P450 2E1)

NC[C@H]1CC[C@H](C(=O)O)CC1 [TRANEXAMIC ACID]
Not Active: IC50 [1] | Ki [1] | IC50 (Calcitonin receptor) | IC50 [2] | Ki [2] | IC50 [3] | IC50 (Mu-type opioid receptor; cho-k1) | IC50 [4] | IC50 [5] | Ki [5] | IC50 (Cytochrome P450 2E1) | Ki (Cytochrome P450 2E1)

CC1(C)O[C@@H]2C[C@H]3[C@@H]4CCC5=CC(=O)C=C[C@]5(C)[C@@]4(F)[C@@H](O)C[C@]3(C)[C@]2(C(=O)CO)O1 [TRIAMCINOLONE ACETONIDE]
Not Active: IC50 [1] | Ki [1] | IC50 (Calcitonin receptor) | IC50 [2] | Ki [2] | IC50 [3] | IC50 (Mu-type opioid receptor; cho-k1) | IC50 [4] | IC50 [5] | Ki [5] | IC50 (Cytochrome P450 2E1) | Ki (Cytochrome P450 2E1)

NS(=O)(=O)c1cc2c(cc1Cl)NC(C(Cl)Cl)NS2(=O)=O (stereo not drawn) [TRICHLORMETHIAZIDE]
Not Active: IC50 [1] | Ki [1] | IC50 (Calcitonin receptor) | IC50 [2] | Ki [2] | IC50 [3] | IC50 (Mu-type opioid receptor; cho-k1) | IC50 [4] | IC50 [5] | Ki [5] | IC50 (Cytochrome P450 2E1) | Ki (Cytochrome P450 2E1)

Cc1c(C)c2c(c(C)c1O)CCC(C)(COc1ccc(CC3SC(=O)NC3=O)cc1)O2 (stereo not drawn) [TROGLITAZONE]
Not Active: IC50 [1] | Ki [1] | IC50 (Calcitonin receptor) | IC50 [2] | Ki [2] | IC50 [3] | IC50 (Mu-type opioid receptor; cho-k1) | IC50 [4] | IC50 [5] | Ki [5] | IC50 (Cytochrome P450 2E1) | Ki (Cytochrome P450 2E1)

N[C@@H]1[C@H]2CN(c3nc4c(cc3F)c(=O)c(C(=O)O)cn4-c3ccc(F)cc3F)C[C@@H]12 [TROVAFLOXACIN]
Not Active: IC50 [1] | Ki [1] | IC50 (Calcitonin receptor) | IC50 [2] | Ki [2] | IC50 [3] | IC50 (Mu-type opioid receptor; cho-k1) | IC50 [4] | IC50 [5] | Ki [5] | IC50 (Cytochrome P450 2E1) | Ki (Cytochrome P450 2E1)
